Assay results reported in patent publication US20090247555A1, “5,7-Disubstituted[1,3]Thiazolo[4,5-D]Pyrimidin-2(3H)-One Derivatives 258” (AstraZeneca AB, priority 2008, published 2009).

How the values were obtained:
CX3CR1 receptor = target: T1, CX3CR1 receptor (Homo sapiens, UniProt P49238); assay: Fractalkine (CX3CR1) GTPgS inhibition assay (96 well); assay type: biochemical; details: CX3CR1 CHO K1 membranes, inhibition of 35S-GTPγS signal generated by EC80 of fractalkine, triplicate
T1 construct: host or cells: CHO K1 cells; membranes prepared in-house
T1 sequence (P49238 1-355): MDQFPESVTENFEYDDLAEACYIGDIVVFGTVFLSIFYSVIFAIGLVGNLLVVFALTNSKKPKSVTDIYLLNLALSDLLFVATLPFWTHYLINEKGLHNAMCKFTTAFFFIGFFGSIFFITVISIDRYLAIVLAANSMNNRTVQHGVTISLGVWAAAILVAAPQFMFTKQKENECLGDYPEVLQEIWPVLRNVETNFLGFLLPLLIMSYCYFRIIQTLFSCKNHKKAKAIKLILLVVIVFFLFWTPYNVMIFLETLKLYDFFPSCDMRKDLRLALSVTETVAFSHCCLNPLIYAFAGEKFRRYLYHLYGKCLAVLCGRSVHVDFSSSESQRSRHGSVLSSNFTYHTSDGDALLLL
Experimental: The activation of the CX3CR1 receptor by fractalkine can be detected using a GTPγS assay. ^35S-labelled GTPγS is added to the reaction (together with compounds and CX3CR1 CHO K1 membranes) to bind to the G-protein in the membranes instead of GTP upon activation of the receptor. Since ^35S-labelled GTPγS is non-hydrolysable the receptor will stay in its active state. The bound ^35S-labelled GTPγS is separated from free by vacuum filtration onto 96 well filters. In inhibition assay mode the receptor in the membranes will be activated with the EC80 of fractalkine and further the CX3CR1 antagonists will inhibit the signal generated by the EC80 of fractalkine.
Ligand: Fractalkine, PeproTech, cat no 300-31, 1 mg, −20° C. Diluted in dH2O+0.05% BSA to a stock concentration of 0.1 mM, Stored in −20° C.
^35S-GTPγS, Perkin Elmer (NEN), Cat no NEG030H, Specific activity 1250 Ci/mmol, 1 mCi/ml, −20° C.
Membranes: membranes are prepared inhouse from CX3CR1 CHO K1 cells purchased from Euroscreen. Protein concentration: 5.7 mg/ml, −80° C.
• HEPES: Sigma H-3375, RT • MgCl2×6H2O: Merck, cat no 5833, RT • NaCl: Merck, cat no 6404, RT • GDP: −20° C., Sigma cat no G-7127, Diluted in dH2O to a stock concentration of 10 mM. • Stored in −20° C. • Gelatine type A: Sigma, cat no G2625, 1% stock in water (heating is necessary to dissolve gelatine) made fresh on the day of the experiment RT
• Tris: Tris-HCl: Sigma, cat no T1503, RT • Tris-base: Sigma, cat no T3283, RT • MgCl2×6H2O: Merck, cat no 5833, RT • NaCl: Merck, cat no 6404, RT • Assay plates: 96 well, Nunc, 269620 • Filter: Printed Filtermat B, Wallac • Scintillator sheets: MeltiLex B, PerkinElmer
Assay plates are prepared by CMT with 1 compound/plate. 2 μl compound with the highest concentration 3.3 mM diluted with a factor 3 in 10 steps. This gives a final assay concentration of 33 μM for the highest concentration.
100 μl membranes (5 μg/well) diluted in 2× assay buffer is added to the assay plate.
100 μl ^35S-GTPγS (final assay concentration: 0.00056 μCi/μl) diluted in dH2O with EC80 of fractalkine is then added. […]
The plate is read in a microbeta. […]

[1] = test system: human whole blood, adhesion to fractalkine; assay: Human whole blood flow adhesion assay; assay type: cell-based; details: heparinised human whole blood, adhesion to recombinant human fractalkine under flow, 15 min preincubation
Experimental: Flow adhesion assays were performed using a microfluidics system (Cellix Microfluidics SP1.0 platform) and 8-channel biochips (Cellix Vena 8 biochips). Channel 1 was used as control and channels 2 to 8 to evaluate seven different concentrations of antagonist. To 25 monitor adhesion to fractalkine, channels were first coated with 15 μl of anti-His Tag antibody at 25 μg/ml for 2 hours. Channels were then washed three times with 15 μl DPBS to remove unbound antibody. Subsequently, 15 μl of recombinant human fractalkine at 2.5 μg/ml was added to each channel and biochips were left at 4° C. overnight in a humidified atmosphere. The following day, channels were washed three times with 15 μl DPBS prior to blocking with 15 μl of BSA at 10 mg/ml for 30 minutes. Human whole blood was obtained by venipuncture using heparin as anti-coagulant. DMSO carrier or compounds in DMSO were added to 0.3 ml blood in 1.5 ml Eppendorf tubes followed by incubation at room temperature for 15 minutes. The Vena 8 biochip was placed on a microscope stage and channels were washed with RPMI 1640 medium containing 1% BSA in preparation for the assays. […] Adhered cells were subsequently quantified using DucoCell software (Cellix).

Row | SMILES | IC50 (CX3CR1 receptor) | IC50 [1]
1 | CC(C)C[C@H](CO)Nc1nc(SC(C)c2ccccn2)nc2[nH]c(=O)sc12 (stereo partly drawn) [Example 1, 7-[(R)-1-hydroxy-4-methylpentan-2-ylamino]-5-[1-(pyridin-2-yl)ethylthio]thiazolo[4,5-d]pyrimidin-2(3H)-one] | 2600 nM | 
2 | CC(C)CC(CO)Nc1nc(SC(C)c2ccccn2)nc2[nH]c(=O)sc12 (single isomer, unassigned; isomer 1) [Example 12] | 1000 nM | 2400 nM
3 | CC(C)CC(CO)Nc1nc(SC(C)c2ccccn2)nc2[nH]c(=O)sc12 (single isomer, unassigned; isomer 2) [Example 13] | 9200 nM | 
